According to ChEMBL document CHEMBL1909046, “DrugMatrix in vitro pharmacology data”:

How the values were obtained:
[1] = molecular target: Mitogen-activated protein kinase 3 (Homo sapiens, UniProt P27361); assay: DRUGMATRIX: Protein Serine/Threonine Kinase, ERK1 enzyme inhibition (substrate: Myelin Basic Protein); design: species or system Escherichia coli; details: Not Active = under 50% inhibition at 10 µM
Calcitonin receptor = molecular target: T1, Calcitonin receptor (Homo sapiens, UniProt P30988); type: cell membranes, Membrane; details: t47d; also: in other assays of this panel Not Active means under 50% inhibition at 10 µM
T1 sequence (P30988 whole entry): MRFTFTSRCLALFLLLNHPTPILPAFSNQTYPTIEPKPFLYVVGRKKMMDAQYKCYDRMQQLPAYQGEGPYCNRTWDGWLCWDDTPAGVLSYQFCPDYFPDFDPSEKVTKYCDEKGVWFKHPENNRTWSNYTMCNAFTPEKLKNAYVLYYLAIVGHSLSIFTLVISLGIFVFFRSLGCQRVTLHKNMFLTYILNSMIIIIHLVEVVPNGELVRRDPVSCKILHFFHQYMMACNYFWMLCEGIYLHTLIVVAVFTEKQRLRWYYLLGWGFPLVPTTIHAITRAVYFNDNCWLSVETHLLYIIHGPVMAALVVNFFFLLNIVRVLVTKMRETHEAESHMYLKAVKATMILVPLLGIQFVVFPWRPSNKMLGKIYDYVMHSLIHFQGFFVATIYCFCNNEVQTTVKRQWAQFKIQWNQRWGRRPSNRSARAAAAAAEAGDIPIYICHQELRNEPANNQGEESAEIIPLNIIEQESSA

[2] = molecular target: T2, Alpha-1B adrenergic receptor (Rattus norvegicus, UniProt P15823); assay: DRUGMATRIX: Alpha-1B adrenergic receptor radioligand binding (ligand: prazosin); type: cell membranes, Wistar, Liver, Membrane; details: Not Active = under 50% inhibition at 10 µM
T2 sequence (P15823 whole entry): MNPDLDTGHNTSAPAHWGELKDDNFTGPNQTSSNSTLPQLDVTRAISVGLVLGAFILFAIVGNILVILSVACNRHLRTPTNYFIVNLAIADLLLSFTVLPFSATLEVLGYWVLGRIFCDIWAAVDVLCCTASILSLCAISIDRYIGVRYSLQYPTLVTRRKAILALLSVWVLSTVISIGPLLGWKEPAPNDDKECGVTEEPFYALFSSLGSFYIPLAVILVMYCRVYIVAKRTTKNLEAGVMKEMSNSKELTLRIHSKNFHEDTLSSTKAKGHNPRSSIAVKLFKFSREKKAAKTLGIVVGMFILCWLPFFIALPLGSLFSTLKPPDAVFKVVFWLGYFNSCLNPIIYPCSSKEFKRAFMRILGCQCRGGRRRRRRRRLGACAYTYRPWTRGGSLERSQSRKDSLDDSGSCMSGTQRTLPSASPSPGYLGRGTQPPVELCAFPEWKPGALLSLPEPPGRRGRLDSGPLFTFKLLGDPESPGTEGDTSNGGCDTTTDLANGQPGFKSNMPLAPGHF

[3] = DRUGMATRIX: Phosphodiesterase PDE3 enzyme inhibition (substrate: [3H]cAMP + cAMP); type: tissue-based, Homo sapiens; details: platelet; Not Active = under 50% inhibition at 10 µM
Cytochrome P450 2C9 = Cytochrome P450 2C9 (Homo sapiens, UniProt P11712); details: bti-tn-5b1-4; also: in other assays of this panel Not Active means under 50% inhibition at 10 µM
[4] = DRUGMATRIX: Tumor Necrosis Factor (TNF), Non-Selective radioligand binding (ligand: [125I] TNF-alpha); type: cell membranes, Membrane; details: u-937; Not Active = under 50% inhibition at 10 µM
B2 bradykinin receptor = molecular target: T3, B2 bradykinin receptor (Homo sapiens, UniProt P30411); type: cell membranes, Membrane; details: chem-1; also: in other assays of this panel Not Active means under 50% inhibition at 10 µM
T3 sequence (P30411 whole entry): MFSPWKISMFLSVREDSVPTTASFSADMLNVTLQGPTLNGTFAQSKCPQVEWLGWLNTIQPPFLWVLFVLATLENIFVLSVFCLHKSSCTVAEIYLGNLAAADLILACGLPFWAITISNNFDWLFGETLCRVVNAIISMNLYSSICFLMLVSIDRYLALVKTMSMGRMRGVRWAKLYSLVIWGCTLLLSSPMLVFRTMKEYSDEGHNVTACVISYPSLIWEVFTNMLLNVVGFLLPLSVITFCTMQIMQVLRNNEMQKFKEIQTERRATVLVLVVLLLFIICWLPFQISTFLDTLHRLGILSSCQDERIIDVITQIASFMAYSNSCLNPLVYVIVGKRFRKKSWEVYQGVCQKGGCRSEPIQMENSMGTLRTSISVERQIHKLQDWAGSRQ

[5] = DRUGMATRIX: Calcium Channel Type L, Dihydropyridine radioligand binding (ligand: [3H] Nitrendipine); type: cell membranes, Rattus norvegicus, Wistar, Cerebral cortex, Membrane; details: Not Active = under 50% inhibition at 10 µM
[6] = molecular target: Beta-3 adrenergic receptor (Homo sapiens, UniProt P13945); assay: DRUGMATRIX: Adrenergic beta3 radioligand binding (ligand: [125I] Cyanopindolol); type: cell membranes, Membrane; details: hek293; Not Active = under 50% inhibition at 10 µM
Chain of Beta-3 adrenergic receptor (P13945 whole entry): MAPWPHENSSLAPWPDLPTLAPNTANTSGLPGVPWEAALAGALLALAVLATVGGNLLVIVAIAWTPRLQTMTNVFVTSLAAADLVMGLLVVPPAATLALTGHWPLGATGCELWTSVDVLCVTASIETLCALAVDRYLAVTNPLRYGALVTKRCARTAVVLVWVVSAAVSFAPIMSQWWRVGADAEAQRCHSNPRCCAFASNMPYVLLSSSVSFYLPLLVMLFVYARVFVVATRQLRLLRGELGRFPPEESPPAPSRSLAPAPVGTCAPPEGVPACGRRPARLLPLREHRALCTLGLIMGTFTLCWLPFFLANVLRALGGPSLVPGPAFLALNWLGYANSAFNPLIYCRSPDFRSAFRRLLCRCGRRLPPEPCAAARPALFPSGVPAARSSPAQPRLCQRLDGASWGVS

Chain of Mitogen-activated protein kinase 3 (P27361 whole entry): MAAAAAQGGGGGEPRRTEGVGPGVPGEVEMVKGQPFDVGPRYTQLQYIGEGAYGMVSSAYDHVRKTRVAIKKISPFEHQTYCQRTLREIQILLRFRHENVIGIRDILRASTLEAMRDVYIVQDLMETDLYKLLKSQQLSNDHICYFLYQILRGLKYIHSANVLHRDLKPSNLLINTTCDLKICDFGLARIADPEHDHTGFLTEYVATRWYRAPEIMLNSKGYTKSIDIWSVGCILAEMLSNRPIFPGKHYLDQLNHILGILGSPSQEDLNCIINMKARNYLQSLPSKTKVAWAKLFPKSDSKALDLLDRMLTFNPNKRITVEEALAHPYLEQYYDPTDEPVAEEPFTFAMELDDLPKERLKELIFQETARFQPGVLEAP
Chain of Cytochrome P450 2C9 (P11712 whole entry): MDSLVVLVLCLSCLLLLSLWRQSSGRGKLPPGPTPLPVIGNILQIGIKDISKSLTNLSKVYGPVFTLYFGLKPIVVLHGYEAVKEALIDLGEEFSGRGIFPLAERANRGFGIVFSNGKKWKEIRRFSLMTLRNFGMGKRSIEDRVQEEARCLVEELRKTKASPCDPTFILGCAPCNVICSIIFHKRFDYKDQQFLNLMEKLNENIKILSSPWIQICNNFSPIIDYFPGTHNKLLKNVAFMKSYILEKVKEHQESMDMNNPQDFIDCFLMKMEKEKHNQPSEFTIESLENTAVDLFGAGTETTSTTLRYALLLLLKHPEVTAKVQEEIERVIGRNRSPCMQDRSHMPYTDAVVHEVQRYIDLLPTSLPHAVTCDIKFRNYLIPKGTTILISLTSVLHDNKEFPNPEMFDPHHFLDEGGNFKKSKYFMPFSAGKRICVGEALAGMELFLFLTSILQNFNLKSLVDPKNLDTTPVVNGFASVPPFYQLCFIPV

Cc1nccn1CC1CCc2c(c3ccccc3n2C)C1=O (stereo not drawn) [ONDANSETRON]
Not Active: IC50 [1] | IC50 (Calcitonin receptor) | IC50 [2] | IC50 [3] | Ki [3] | IC50 (Cytochrome P450 2C9) | Ki (Cytochrome P450 2C9) | IC50 [4] | Ki [4] | IC50 (B2 bradykinin receptor) | IC50 [5] | Ki [5] | IC50 [6]

CCCCOc1ccc(OCCCN2CCOCC2)cc1 [PRAMOXINE]
Not Active: IC50 [1] | IC50 (Calcitonin receptor) | IC50 [2] | IC50 [3] | Ki [3] | IC50 (Cytochrome P450 2C9) | Ki (Cytochrome P450 2C9) | IC50 [4] | Ki [4] | IC50 (B2 bradykinin receptor) | IC50 [5] | Ki [5] | IC50 [6]

O=C(C1CCCCC1)N1CC(=O)N2CCc3ccccc3C2C1 (stereo not drawn) [PRAZIQUANTEL]
Not Active: IC50 [1] | IC50 (Calcitonin receptor) | IC50 [2] | IC50 [3] | Ki [3] | IC50 (Cytochrome P450 2C9) | Ki (Cytochrome P450 2C9) | IC50 [4] | Ki [4] | IC50 (B2 bradykinin receptor) | IC50 [5] | Ki [5] | IC50 [6]

CCN(CC)CCOC(=O)c1ccc(N)cc1 [PROCAINE]
Not Active: IC50 [1] | IC50 (Calcitonin receptor) | IC50 [2] | IC50 [3] | Ki [3] | IC50 (Cytochrome P450 2C9) | Ki (Cytochrome P450 2C9) | IC50 [4] | Ki [4] | IC50 (B2 bradykinin receptor) | IC50 [5] | Ki [5] | IC50 [6]

CCCN(CCC)C(=O)C(CCC(=O)O)NC(=O)c1ccccc1 (stereo not drawn) [PROGLUMIDE]
Not Active: IC50 [1] | IC50 (Calcitonin receptor) | IC50 [2] | IC50 [3] | Ki [3] | IC50 (Cytochrome P450 2C9) | Ki (Cytochrome P450 2C9) | IC50 [4] | Ki [4] | IC50 (B2 bradykinin receptor) | IC50 [5] | Ki [5] | IC50 [6]

NC(=O)c1cnccn1 [PYRAZINAMIDE]
Not Active: IC50 [1] | IC50 (Calcitonin receptor) | IC50 [2] | IC50 [3] | Ki [3] | IC50 (Cytochrome P450 2C9) | Ki (Cytochrome P450 2C9) | IC50 [4] | Ki [4] | IC50 (B2 bradykinin receptor) | IC50 [5] | Ki [5] | IC50 [6]

OC(CCN1CCCCC1)(c1ccccc1)C1CCCCC1 (stereo not drawn) [TRIHEXYPHENIDYL]
Not Active: IC50 [1] | IC50 (Calcitonin receptor) | IC50 [2] | IC50 [3] | Ki [3] | IC50 (Cytochrome P450 2C9) | Ki (Cytochrome P450 2C9) | IC50 [4] | Ki [4] | IC50 (B2 bradykinin receptor) | IC50 [5] | Ki [5] | IC50 [6]

Cc1cc2cc3c(C)cc(=O)oc3c(C)c2o1 [TRIOXSALEN]
Not Active: IC50 [1] | IC50 (Calcitonin receptor) | IC50 [2] | IC50 [3] | Ki [3] | IC50 (Cytochrome P450 2C9) | Ki (Cytochrome P450 2C9) | IC50 [4] | Ki [4] | IC50 (B2 bradykinin receptor) | IC50 [5] | Ki [5] | IC50 [6]

CCCC(CCC)C(=O)O [VALPROIC ACID]
Not Active: IC50 [1] | IC50 (Calcitonin receptor) | IC50 [2] | IC50 [3] | Ki [3] | IC50 (Cytochrome P450 2C9) | Ki (Cytochrome P450 2C9) | IC50 [4] | Ki [4] | IC50 (B2 bradykinin receptor) | IC50 [5] | Ki [5] | IC50 [6]

CCC1=C[C@@H]2CN(C1)Cc1c([nH]c3ccccc13)[C@@](C(=O)OC)(c1cc3c(cc1OC)N(C)[C@H]1[C@@](O)(C(=O)OC)[C@H](OC(C)=O)[C@]4(CC)C=CCN5CC[C@]31[C@@H]54)C2 [VINORELBINE]
Not Active: IC50 [1] | IC50 (Calcitonin receptor) | IC50 [2] | IC50 [3] | Ki [3] | IC50 (Cytochrome P450 2C9) | Ki (Cytochrome P450 2C9) | IC50 [4] | Ki [4] | IC50 (B2 bradykinin receptor) | IC50 [5] | Ki [5] | IC50 [6]

CADMIUM DICHLORIDE
Not Active: IC50 [1] | Ki [1] | IC50 (Calcitonin receptor) | Ki (Calcitonin receptor) | IC50 [2] | Ki [2] | IC50 [3] | Ki [3] | IC50 (Cytochrome P450 2C9) | Ki (Cytochrome P450 2C9) | IC50 [4] | Ki [4] | IC50 (B2 bradykinin receptor) | Ki (B2 bradykinin receptor) | IC50 [5] | Ki [5] | IC50 [6] | Ki [6]
